Measurements: patent US11254654B2, “Heterochromatin gene repression inhibitors” (The University of North Carolina at Chapel Hill, priority 2017, dated 2022)
Counter-ions that a name gives are not always drawn.

Test system: H3K9me2/3
Experiment: Global H3K9me2/3 western blot of acid extracted histones
Type: cell-based, mouse
Details: 10 μM compound, 48 hours
Description: CiA:Oct4 N118/N163 cells were grown to confluency as described above in standard gelatin coated 6 well tissue culture plates. Media was aspirated and the cells were washed with 2 mL of PBS. The PBS was removed and the cells were trypsinized with 0.25% trypsin-EDTA until a single cell suspension was generated. Cells were transferred to a conical tube and pelleted at 300×g for 5 min. Supernatant was removed and the cells were washed with PBS and centrifuged at 300×g for 5 min. The PBS supernatant was removed. Nuclei were collected from the cells by resuspending the pellet in lysis buffer containing (50 mM HEPES pH 8.0, 140 mM NaCl, 1 mM EDTA, 10% glycerol, 0.5% NP40, 0.25% Triton X100). Cells were incubated in lysis buffer on ice for 10 min. Nuclei were pelleted at 1200×g for 5 min at 4° C. and the supernatant was removed. […]
SDS-PAGE sample gels were transferred to Millipore Immobilon-FL PVDF membranes either by semi-wet or wet transfer according to Bio-Rad procedure. […] Western blot membranes were imaged using the Licor Odyssey scanner and data analyzed using Image Studio v5.2 software.
HP1 gene repression and silencing is mediated by H3K9me3 deposition. […] Total extracted histone proteins were quantified by Bradford Coomassie and equal total protein was loaded per sample for gel electrophoresis and subsequent western blot analysis. […]

SMILES: COc1cc2nc(N3CCCC3)nc(N[C@H]3CCCNC3)c2cc1OC [compound 1, (S)-6,7-Dimethoxy-N-(Piperidin-3-yl)-2-(Pyrrolidin-1-yl)Quinazolin-4-Amine Trifluoroacetic Acid Salt]
- Global H3K9me2/3 levels normalized to histone H4: roughly equivalent decreases in H3K9 methylation
